Data set [1] is described as follows: Lability of yttrium complexes on addition of excess metal. As to conditions: Y. Type of data set: physicochemical. The protocol: (§1) A disposable 10 ml plastic (Biorad) column was filled with 1 to 2 ml of water-swelled Sephadex™ C-25 cation exchange resin. The water was pressure eluted to the top of the resin. Fifteen μl of the complex (or more if counts were low) were added to the top of the resin. This was followed by 2 ml of 4:1 (V:V) isotonic saline:conc. ammonium hydroxide solution as an eluent which was allowed to drip into a counting tube. This was also pressure eluted to the top of the resin. An additional 2 ml of the eluent were added and the column pressure eluted to remove all liquid. The dried resin was then placed in a third counting tube and the three tubes counted on a NaI well counter using a Canberra multichannel analyzer linked to a computer. The percent complex was determined by dividing the number of counts in the two elutions by the total counts in the elutions plus the column, all times 100. By this method, uncomplexed yttrium was retained on the column.
The 1:1 complex of yttrium with 1-(p-aminobenzyl)diethylenetriaminepentaacetic acid (ABDTPA), a well known bifunctional chelant used in the literature, and with the ligand of Example 2 (Now Ex. XVI) and Example 12 (now Ex. XVII) were prepared using the techniques described earlier. Several 100 microliter aliquots were then withdrawn into separate centrifuge tubes. Excess metal was added such that the total volume change is minimized and the time noted. One-half hour after metal addition, the percent complex was determined by the Sephadex™ C-25 method and this was compared to the original amount of complex. The percent complex versus added metal gives an indication as to the lability of the ligand-metal complex. Results are given below and are compared to the EDTA-yttrium complex.

Data set [2] is described as follows: Inertness of antibody-complex conjugates challenged with excess DTPA. The data set is classed as physicochemical. As to conditions: 1000 fold molar excess of DTPA, pH 7.4, one hour. As to the method: The purified antibody-complexes were added to HEPES buffer (N-2-hydroxyethylpiperazine-N'-2-ethanesulfonic acid) at pH 7.4 and treated with an appropriate amount of 0.1M DTPA solution (pH 7.4) to ensure a 1000 fold molar excess of DTPA over complex attached to antibody. After one hour an aliquot was removed and the antibody-complex conjugates were separated from low molecular weight substances using gel-filtration.

Data set [3] in a line: In vivo screening of bifunctional chelates: biodistribution, percent injected dose in liver. As to conditions: rat, i.v. tail vein, 2 hours.
The conditions of data set [4]: cited from earlier work.
For data set [5] the following is noted: rat, in vivo, iv, 120 min.
The conditions of data set [6]: rat, in vivo, 120 min.
Data set [7] in a line: Percent complex determination, yttrium complexes (Sephadex C-25 cation exchange). Type of data set: physicochemical. As to conditions: Y. The protocol:
The yttrium and/or samarium complexes of several of the compounds were prepared and percent complexation determined as follows:
Complexes were made by preparing a 0.0003M yttrium solution in water. (YCl3 ·6H2 O, 303.26 g/mole; Y(OAc)3, 12.1% H2 0). Radioactive YCl3 (Oakridge National Laboratories) was added to give the desired number of counts. Ten μl of ligand solution (at 0.03M) were added to 990 μl of the Y solution, giving a ligand-to-metal ratio of 1:1. (Ten times the amount of ligand solution was used for a 10:1 ligand to metal ratio.) The pH was then adjusted to 7.4 using microliter quantities of hydrochloric acid or sodium hydroxide. The solution was then tested for the amount of complexed yttrium using the cation exchange method given below.
as §1

Data set [8] can be described thus: Percent complex determination, samarium complexes (Sephadex C-25 cation exchange). The data set is classed as physicochemical. As to conditions: Sm. As to the method:
as §1, with “100.” for “100. By this method, uncomplexed yttrium was retained on the column.”
Samarium complexes were formed as described previously for yttrium complexes except that 0.0003M samarium was prepared by dissolution of Sm2 03 (348.7 g mole) in 0.1M hydrochloric acid. […] Percent complex determination was made in the same manner as for the yttrium complex.

The subject of data set [9] is osteosarcoma in the right proximal humerus. The data set can be described thus: Treatment of a dog with osteosarcoma. Type of data set: in vivo. As to conditions: Sm-153, 300 times molar excess ligand, I.V. 0.95 mCi/Kg, one week after injection. The protocol: A dog was presented with an osteosarcoma in the right proximal humerus and walked with significant lameness. A complex was prepared using the ligand of Example 10 with a Sm-153 solution. The concentration of Sm was 3×10^-4 M and the ligand was used with a 300 times molar excess. The specific activity of the Sm-153 was 30 mCi/ml. The dog was given an I.V. injection of this complex containing 0.95 mCi of Sm-153 per Kg body weight of the dog.

Data set [10] in a line: Biodistribution in rats. As to conditions: 2 hours.
Data set [11] in a line: Biodistribution in rabbit. Type of data set: in vivo. As to conditions: Y-90, 10 times molar excess ligand. The protocol:
Muscle was calculated using 46% of body weight.
A rabbit was injected in the same manner as the rats with a formulation having Y-90 with Y at 3×10^-4 M and the ligand of Example 10 at 10 times molar excess.

For data set [12] the following is noted: radionuclide; cited from earlier work.
Setting [13] is: Metal/Ligand Molar Ratio 10, one-half hour after metal addition.
The mark [14] stands for this setting: Metal/Ligand Molar Ratio 100, one-half hour after metal addition.
Where [15] appears, read: Metal/Ligand Molar Ratio 250, one-half hour after metal addition.
The mark [16] stands for this setting: Metal/Ligand Molar Ratio 500, one-half hour after metal addition.
[17] abbreviates: Ho-166, 300 times molar excess ligand.
The mark [18] stands for this setting: Sm-153, 10 times molar excess ligand.
[19] abbreviates: Sm-153, 300 times molar excess ligand.

Molecules are shown by their SMILES. Where two headings read alike, the source gives them in different places.

Broadly, the half-life is the time in which the quantity being followed falls by half.

In the case of `Nc1ccc(CC(CN(CCN(CC(=O)O)CC(=O)O)CC(=O)O)N(CC(=O)O)CC(=O)O)cc1` (stereo not shown) [ABDTPA, 1-(p-aminobenzyl)diethylenetriaminepentaacetic acid], the “% Complex” value in [1] (Metal/Ligand Molar Ratio 1) is on record as 97%; in [1] (setting [13]), 95%; in data set [1] (setting [14]), 92%; in data set [1] (setting [15]), 87%; in [1] (setting [16]) it was 70%. In data set [2], the “yttrium lost from antibody-complex conjugate” value is “over 98%”.

On to `O=C(O)CN(CCN(CC(=O)O)CC(=O)O)CC(=O)O` [EDTA, ethylenediaminetetraacetic acid], for which the “% Complex” value in [1] (Metal/Ligand Molar Ratio 1) is recorded as 98%; in data set [1] (setting [13]), 86%; in data set [1] (setting [14]) it was 78%; in data set [1] (setting [15]), 48%; in [1] (setting [16]) it was 16%. Further, the “% Injected Dose in Liver” value in [3] (Sm, ligand/metal 5:1) is 8.4%; in data set [3] (Sm, ligand/metal about 300:1) it was 4.4%. Moreover, the “concentrations of radioactivity in organs” value in data set [4] (Sc-46, Y-91, La-140, Sm-153, chelant to metal 5:1) was “high concentrations of radioactivity were observed in the liver, spleen, kidney, lung and bone”.

In the case of `CC(=O)Nc1ccc(O)c(C(NCCN(CC(=O)O)CC(=O)O)C(=O)O)c1` (stereo not shown) [Example 1, 2-[(2-{[bis(carboxymethyl)]amino}ethyl)amino]-2-(5-acetamido-2-hydroxyphenyl)ethanoic acid], the “% Injected Dose in Liver” value in data set [5] is reported as 0.87%. In addition, in data set [6], the “biodistribution, blood (% dose)” value was found to be 0.57%; the “biodistribution, bone (% dose)” value worked out at 56.1%; the “biodistribution, liver (% dose)” value turned out to be 0.87%; the “biodistribution, muscle (% dose)” value is on record as 0.78%. Further, in data set [6], the “biodistribution, spleen (% dose)” value turned out to be 0.03%. Moreover, the “% Complex” value in data set [7] (ligand/metal 10:1) was determined as 98%.

On to `CC(=O)Nc1ccc(OCC(=O)O)c(C(C(=O)O)N(CCN(CC(=O)O)CC(=O)O)CC(=O)O)c1` (stereo not shown) [Example 2, 2-[(2-{[bis(carboxymethyl)]amino}ethyl) (carboxymethyl)amino]-2-[5-acetamido-2-(carboxymethyloxy)phenyl]ethanoic acid], for which the “% Complex” value is given as 99% in [1] (Metal/Ligand Molar Ratio 1); 94% in data set [1] (setting [13]); 84% in [1] (setting [14]); 75% in data set [1] (setting [16]); more than 99% in [7] (ligand/metal 10:1); more than 99% in [8] (ligand/metal 10:1). Besides, in data set [5], the “% Injected Dose in Liver” value came to 0.22%.

`CC(=O)Nc1cc(C(C(=O)O)N(CC(=O)O)CC(=O)O)c(O)c(C(C(=O)O)N(CC(=O)O)CC(=O)O)c1` (stereo not shown) [Example 10, 2,6-BIS{[BIS(CARBOXYMETHYL)AMINO](CARBOXY)METHYL}-4-(ACETAMIDO) PHENOL]: the “% Injected Dose in Liver” value stood at 0.26% in data set [3] (Ho, (300)); 0.12% in data set [3] (Sm, (300)); 1.3% in [3] (Sm, ligand/metal 10:1); 0.39% in data set [3] (Y, ligand/metal 10:1). In addition, the “dog's gait” value in data set [9] is listed as “noticeably improved”. Besides, the “biodistribution, blood (% dose)” value amounted to 0.09% in data set [10] (setting [17]), 0.18% in data set [10] (setting [18]), 0.05% in data set [10] (setting [19]) and 0.68% in data set [11]. Moreover, the “biodistribution, bone (% dose)” value is recorded as 52.9% in [10] (setting [17]), 48.5% in data set [10] (setting [18]), 52.7% in data set [10] (setting [19]) and 59% in data set [11]. Further, the “biodistribution, liver (% dose)” value was 0.26% in data set [10] (setting [17]), 1.3% in [10] (setting [18]), 0.12% in [10] (setting [19]) and 1.1% in [11]. The “biodistribution, muscle (% dose)” value in data set [10] (setting [17]) turned out to be 1.1%; in [10] (setting [18]), 0.73%; in data set [10] (setting [19]), 0.23%; in data set [11] it was 1.5%. For the same compound, the “biodistribution, spleen (% dose)” value in data set [10] (setting [17]) was determined as 0.007%; in data set [10] (setting [18]), 0.01%; in data set [10] (setting [19]), 0.005%; in data set [11], 0.19%. Further, the “% Complex” value in data set [7] (ligand/metal 10:1) was determined as 98%.

With `Nc1cc(CN(CCN(CC(=O)O)CC(=O)O)CC(=O)O)c(O)c(CN(CCN(CC(=O)O)CC(=O)O)CC(=O)O)c1` [Example 12], the “% Complex” value is reported as 95% in data set [1] (Metal/Ligand Molar Ratio 1); 93% in [1] (setting [13]); 90% in [1] (setting [14]); 90% in data set [1] (setting [15]); 79% in data set [1] (setting [16]); 99% in data set [7] (ligand/metal 10:1). In addition, the “% Complex” value in data set [7] (ligand/metal ratio about 1:1), in data set [8] (ligand/metal 10:1) and in data set [8] (ligand/metal ratio about 1:1) was 98% in each case. Besides, the “yttrium lost from antibody-complex conjugate” value in data set [2] is “approximately 39%”.

Turning to `O=C(O)CN(CC(=O)O)CC(=O)O` [NTA, nitrilotri-acetic acid, reference compound], the “% Injected Dose in Liver” value in [3] (Sm, ligand/metal about 300:1) was found to be 8.6%. The “concentrations of radioactivity in organs” value in data set [4] (mouse, in vivo) is “high concentrations of radioactivity were observed in the liver, spleen, kidney, lung and bone”.

`[89Sr]` [Strontium-89]: the half-life in [12] is listed as 50.4 days.

These data come from patent US5342604A (The Dow Chemical Company, priority 1992, dated 1994).
